From PMC10817917, “Alkyl deoxyglycoside-polymyxin combinations against critical priority carbapenem-resistant gram-negative bacteria” (Scientific Reports, 2024)
Like-named read-outs stand apart in the source and are kept apart here.

Legend:
[1] = tested on: E. cloacae CQ1941; experiment: Broth microdilution MIC/MBC, glycosides with or without polymyxins; type: cell-based; conditions: compound + colistin, lowest FICI
[2] = tested on: K. pneumoniae CQ1942; experiment: Broth microdilution MIC, glycosides with or without polymyxins; type: cell-based, Klebsiella pneumoniae; conditions: for MIC: Klebsiella pneumoniae, CQ1942
[3] = tested on: P. aeruginosa CQ4924; experiment: as above; type: cell-based, Pseudomonas aeruginosa; conditions: for MIC: Pseudomonas aeruginosa, CQ4924
[4] = tested on: Caco-2 cells; experiment: Resazurin cell viability assay (cytotoxicity); type: cell-based, human; conditions: Homo sapiens, Caco-2, 72 h, read-out: IC50
Protocol: (§1) Cytotoxicity of each compound alone or in combination with different polymyxin concentrations was evaluated through the resazurin cell viability assay[49] in human embryonic HEK-293T cells, as well as in human colon adenocarcinoma Caco-2 cells, after a 72-h long incubation period.
(§2) HEK-293T and Caco-2 cells were grown in RPMI 1640 medium (VWR) supplemented with 10% FBS (Biowest), 1% PenStrep (Sigma Aldrich), and 1% glutamine (Biowest) in a humidified incubator at 37 °C with a 5% CO2 atmosphere. Twice a week, the medium was aspirated, the cells were washed with DPBS (VWR), trypsinized with trypsin–EDTA solution (Biowest), and resuspended in fresh culture medium. The dose-dependent effects of each glycoside or glycoside-polymyxin combination were evaluated by the resazurin cell viability assay. Polymyxins (colistin sulfate and PMB sulfate for microbiological assays, European Pharmacopoeia Reference Standards, Sigma-Aldrich) were firstly dissolved in sterilized Mili-Q water to a stock concentration of 1 mg/mL, while glycosides were dissolved in DMSO to a stock concentration of 30 mM. 1.5 × 10^4 cells/well in 96.5 µL of medium were seeded onto 96-well plates and incubated at 37 °C for 24 h. For each compound, ten stock dilutions (with concentrations from 750 to 75 µM) were prepared in fresh medium immediately prior to incubation. 16 µL of each dilution were added to each well so that the final glycoside concentrations ranged from 100 to 10 µM in each row in a final assay volume of 120 µL. In addition, the previously prepared polymyxin stock solutions were diluted in fresh medium, affording new stocks of 8, 4, and 2 µg/mL. The same volume (7.5 µL/well) of PMB or colistin was then added to each row to achieve a final polymyxin concentration of 0.5, 0.25, and 0.125 µg/mL, respectively, regardless of the glycoside concentration. In assays without polymyxin, the same volume (7.5 µL/well) of medium was added. In all assays, the maximum DMSO concentration was 0.33%. After a 72-h incubation at 37 °C, 12 µL of a 0.15 mg/mL resazurin (Sigma-Aldrich) in sterilized Mili-Q water were added to each well, and the plates were left incubating for another 4 h at 37 °C. Resorufin was measured at 570/600 nm, and the percentage of resazurin reduction, corresponding to the cell viability percentage, was calculated according to Eq. (1)[60]. IC50 values were obtained by best fitting the dose-dependent inhibition curves using the Prism 9® software. The results were expressed as the mean ± SD of three independent replicates, with only data from analysis with R^2 > 0.90 being considered.1 %Cellviability=Abssample-Absmediumcontrol/Abscellcontrol-Absmediumcontrol×100

[5] = tested on: HEK-293T cells; experiment: Resazurin cell viability assay (cytotoxicity); type: cell-based, human; conditions: 72 h, read-out: IC50
Protocol: as §1, §2

[6] = alone, read-out: MICA (MIC of each compound individually)
[7] = combination with the lowest FICI
[8] = compound + colistin, lowest FICI

For `CCCCCCCCCCCC[C@H]1O[C@H](C)C[C@H](O)[C@H]1O` [Compound 5, 1-(4,6-dideoxy-α-D-xylo-hexopyranosyl)dodecane], the FICI [1] was 0.27, the “MIC of colistin in combination with the compound” value (from here on “MIC … with the compound”) ([2]; Cpd conc. 0.4 μg/mL, strain E) was 0.5 µg/mL and the “MIC … with the compound” value ([2]; Cpd conc. 0.8 μg/mL, strain E) was 0.5 µg/mL. The “MIC … with the compound” value ([2]; Cpd conc. 3.125 μg/mL, strain E) was 0.25 µg/mL, the “MIC … with the compound” value ([2]; Cpd conc. 6.25 μg/mL, strain E) was 0.25 µg/mL and the “MIC … with the compound” value ([2]; Cpd conc. 12.5 μg/mL, strain E) was 0.25 µg/mL. The “MIC … with the compound” value ([2]; Cpd conc. […], strain E) was 0.5 µg/mL, the MIC ([2]; agent alone, no adjuvant (polymyxin conc. 0), strain E, read-out: MIC) was over 100 µg/mL and the MIC [2, 6] was over 100 µg/mL. The “MIC of compound in combination with PMB” value ([2]; PMB 0.25 μg/mL, strain E) was over 100 µg/mL, the “MIC of compound in combination with PMB” value ([2]; PMB 0.5 μg/mL, strain E) was 1.6 µg/mL and the “MIC of compound in combination with colistin” value ([2]; colistin 0.06 μg/mL, strain E) was over 100 µg/mL. For the same compound, the “MIC of compound in combination with colistin” value ([2]; colistin 0.125 μg/mL, strain E) was over 100 µg/mL, the “MIC of compound in combination with colistin” value ([2]; colistin 0.5 μg/mL, strain E) was at most 0.1 µg/mL and the “MICA(A + B) (MIC of compound in combination with colistin)” value [2, 7] was 3.125 µg/mL. The “MICB(A + B) (MIC of colistin in combination with compound)” value [2, 7] was 0.25 µg/mL, the “Interpretation (of FICI)” value ([2]; compound + colistin) was “Additive (from 0.5 to 1.0 were additive)” and the FICI [2, 8] was 0.52. The “MIC … with the compound” value ([3]; Cpd conc. 0.4 μg/mL, strain H) was over 0.5 µg/mL, the “MIC … with the compound” value ([3]; Cpd conc. 0.8 μg/mL, strain H) was over 0.5 µg/mL and the “MIC … with the compound” value ([3]; Cpd conc. 3.125 μg/mL, strain H) was 0.5 µg/mL. The “MIC … with the compound” value ([3]; Cpd conc. 6.25 μg/mL, strain H) was 0.5 µg/mL, the “MIC … with the compound” value ([3]; Cpd conc. 12.5 μg/mL, strain H) was 0.5 µg/mL and the “MIC … with the compound” value ([3]; Cpd conc. […], strain H) was over 0.5 µg/mL. For the same compound, the “MIC of compound in combination with PMB” value ([3]; PMB 0.25 μg/mL, strain H) was over 100 µg/mL, the “MIC of compound in combination with PMB” value ([3]; PMB 0.5 μg/mL, strain H) was 6.3 µg/mL and the MIC ([3]; agent alone, no adjuvant (polymyxin conc. 0), strain H, read-out: MIC) was over 100 µg/mL. The MIC [3, 6] was over 100 µg/mL, the “MIC of compound in combination with colistin” value ([3]; colistin 0.06 μg/mL, strain H) was over 100 µg/mL and the “MIC of compound in combination with colistin” value ([3]; colistin 0.125 μg/mL, strain H) was over 100 µg/mL. For the same compound, the “MIC of compound in combination with colistin” value ([3]; colistin 0.25 μg/mL, strain H) was over 100 µg/mL, the “MIC of compound in combination with colistin” value ([3]; colistin 0.5 μg/mL, strain H) was 3.1 µg/mL and the “MICA(A + B) (MIC of compound in combination with colistin)” value [3, 7] was 3.125 µg/mL. For the same compound, the “MICB(A + B) (MIC of colistin in combination with compound)” value [3, 7] was 0.5 µg/mL, the “Interpretation (of FICI)” value ([3]; compound + colistin) was “Additive (from 0.5 to 1.0 were additive)” and the FICI [3, 8] was 0.52. For the same compound, the IC50 ([4]; Colistin 0.25 μg/mL) was 64.9 ± 0.98 µM, the IC50 ([4]; Colistin 0.5 μg/mL) was 64.1 ± 1.09 µM and the IC50 ([4]; No polymyxin) was 62.4 ± 1.22 µM. For the same compound, the IC50 ([4]; PMB 0.25 μg/mL) was 61.1 ± 1.06 µM, the IC50 ([4]; tested alone (no polymyxin adjuvant)) was 18.7 µg/mL and the IC50 ([5]; Homo sapiens, HEK-293T, Colistin 0.125 μg/mL) was 79.7 ± 1.05 µM. For the same compound, the IC50 ([5]; Homo sapiens, HEK-293T, Colistin 0.25 μg/mL) was 78.6 ± 3.28 µM, the IC50 ([5]; Homo sapiens, HEK-293T, Colistin 0.5 μg/mL) was 80 ± 1.69 µM and the IC50 ([5]; Homo sapiens, HEK-293T, No polymyxin) was 79.74 ± 0.53 µM. For the same compound, the IC50 ([5]; Homo sapiens, HEK-293T, PMB 0.125 μg/mL) was 79.2 ± 2 µM, the IC50 ([5]; Homo sapiens, HEK-293T, PMB 0.25 μg/mL) was 79.4 ± 1.58 µM and the IC50 ([5]; Homo sapiens, HEK-293T, PMB 0.5 μg/mL) was 83.2 ± 0.96 µM. For the same compound, the IC50 ([5]; Homo sapiens, HEK-293T, tested alone (no polymyxin adjuvant)) was 24 µg/mL and the IC50 ([5]; No polymyxin) was 79.7 µM.
